# Active and inactive are the calls of the source. No rule for the calls is given here.
# Tested on: not listed separately
# Experiment: dose response, cytotoxicity control for M. tuberculosis inhibitor project, purified and synthesized compounds (AID 504335)
# Settings: mammalian cell cytotoxicity, viability; at 100 µM (top of the series)
row,Compound,viability
1,Cc1nc(SCC(=O)NC2CCCCC2)[nH]c(=O)c1C,88.8% (inactive)
2,COC(=O)C(C)Oc1ccc(-c2nccc(-c3ccccn3)n2)cc1 (centres undefined),95.7% (inactive)
3,CCOC(=O)COc1ccc(/C=C2\NC(=S)N(CC)C2=O)cc1,94.5% (inactive)
4,O=C(CSc1nc2ccccc2c(=O)[nH]1)NC1CCCCC1,81.8% (inactive)
5,CCOC(=O)COn1c2c(c3c4no[n+]([O-])c4ccc31)CCCC2,87.8% (inactive)
6,COc1cc(NC(=O)C/C(C)=N/NC(=O)c2ccccn2)c(OC)cc1Cl,92.4% (inactive)
7,Cc1ccc(NC(=O)C2C3/C=C\CCCCC32)cc1C (centres undefined),87.6% (inactive)
8,COC(=O)C1CC(=O)N(c2ccc(OCc3ccccc3Cl)cc2)C1 (centres undefined),90.6% (inactive)
9,O=C(CSc1nc2ccccc2c(=O)[nH]1)NCc1ccc(Cl)cc1,83% (inactive)
10,CCc1ccc(/C=C2/C(=O)N(C)C(=S)N2CC(=O)OC)s1,92% (inactive)
11,O=C(/C=C\c1cccs1)N1CCN(Cc2ccc3c(c2)OCO3)CC1,87.7% (inactive)
12,COC(=O)CCc1nc2c(C#N)c(-c3ccc(Cl)cc3)ccn2n1,99.2% (inactive)

# Tested on: mammalian cell cytotoxicity, viability
# Experiment: as above
# Settings: not given
row,Compound,CC50
1,Cc1ccc2ccc3ccc(C)nc3c2n1,58.5 µM
2,CCOC(=O)c1ccc(NC(=O)Cn2ncc(Cl)c(Cl)c2=O)cc1,7.71 µM
3,CC(C)NC(=O)c1sc(=S)n2c1[nH]c(=O)c1ccc(C(=O)NCCc3ccc(Cl)cc3)cc12,99.9 µM
4,CC(=NCc1ccc2c(c1)OCO2)C1=C(O)c2ccccc2C1=O,> 100 µM (inactive)
5,CCC(C)Nc1ccc(NC(C)CC)cc1 (centres undefined),14.3 µM
6,CNc1nc(SCc2ccccc2Cl)nc2c1CCCC2,36 µM
7,O=C(NCC(c1cccs1)N1CCOCC1)c1cc([N+](=O)[O-])cc([N+](=O)[O-])c1 (centres undefined),96.7 µM
8,Cc1ccc2c(c1)c(C1=c3ccccc3=NC1=O)c(O)n2C,10.1 µM
9,Oc1ccccc1/C=N/Nc1ccnc(SCc2ccccc2)n1,93.8 µM
10,COC(=O)c1cc(=O)n(-c2ccc(F)cc2)c(=Nc2ccc(F)cc2)s1,25.7 µM
11,S=c1nc[nH]c2nc[nH]c12,38.7 µM
12,Cc1cccc(/C=C/C(=O)c2ccc([N+](=O)[O-])o2)c1,20.2 µM

# — PubChem BioAssay AID504335 (Southern Research Specialized Biocontainment Screening …, 2011)
